Measured values as given in US7955847B2, “Method for enhancing leukocyte immune function” (priority 2004, dated 2011).

System: leukocyte NADPH oxidase (cytochrome b558)
Experiment: Cell surface expression of cytochrome b558 (NADPH oxidase) by flow cytometry with antibody 7D5
Format: cell-based, human
Settings: leukocytes from X91-CGD patient; 2 hrs treatment; anti-cytochrome b558 antibody 7D5, flow cytometry
Method: Blood samples with EDTA were obtained from patients with X91-chronic granulomatous disease. The samples were water bathed at 37° C. in a lysate buffer containing ammonium chloride, sodium carbonate and EDTA for several minutes to lyze residual red blood cells. The samples were then added with a suspension buffer containing globulin and EDTA to wash and remove the residual lysate buffer. The leukocytes were collected by centrifugation and counted.
Total leukocytes were maintained in RPMI 1640 medium supplemented with 10% heat-inactivated FBS at 37° C. under a humidified atmosphere (5% CO2+95% air). The leukocytes were seeded at a density of 3 to 5×10^5/ml and grown for 2 hrs in the presence or absence of 100 nM cofactor FAD and/or thapsigargin (100 nM or 1 μM). The cells were then cultured in 10% RPMI to recover for 1 hr prior to the following experiments.
To test whether the treatment with thapsigargin or cofactor FAD alone or in combination has effects on the cell surface expression of leukocyte NADPH oxidase, the cell surface expressions of cytochrome b558 in leukocytes with or without desired treatment were assayed. Leukocytes were prepared as illustrated in Example 1. The leukocytes, at the concentration of 5×10^5 cells/ml, were incubated with anticytochrome b558 monoclonal antibody (7D5) at 4° C. for 30 min, followed by incubation with FITC-labeled goat anti-mouse IgG for 40 min.

Row | SMILES | cell surface NADPH oxidase expression
1 | Cc1cc2nc3c(=O)[nH]c(=O)nc-3n(C[C@H](O)[C@H](O)[C@H](O)COP(=O)(O)OP(=O)(O)OC[C@H]3O[C@@H](n4cnc5c(N)ncnc54)[C@H](O)[C@@H]3O)c2cc1C [cofactor FAD, flavin adenine dinucleotide] | slightly enhanced
2 | C/C=C(/C)C(=O)O[C@H]1C(C)=C2[C@H]([C@@H]1OC(=O)CCCCCCC)[C@@](C)(OC(C)=O)C[C@H](OC(=O)CCC)[C@@]1(O)[C@H]2OC(=O)[C@@]1(C)O [thapsigargin] | slightly enhanced
